Here are results for one compound from ChEMBL document CHEMBL4043296 (J Med Chem, 2018).

By Cmax is commonly meant the highest concentration seen after dosing. For orientation: Tmax means the time at which the peak concentration occurs. By AUC(0-t) is commonly meant the area under the concentration-time curve up to a stated or last time point. A higher AUC(0-t) goes with more exposure.

Format in all cases: ADME, organism-based
The nature of data set [1]: Cmax in CD1 mouse plasma at 3 mg/kg, sc after 0.25 hrs by UPLC-MS analysis. Also on record: dose 3 mg/kg, route subcutaneous.
The nature of data set [2]: Tmax in CD1 mouse plasma at 3 mg/kg, sc by UPLC-MS analysis.
The nature of data set [3]: AUClast in CD1 mouse brain at 3 mg/kg, sc by UPLC-MS analysis. On the set-up: dose 3 mg/kg, time 0 - last, route subcutaneous.
Data set [4] is described as follows: Ratio of fAUC in CD1 mouse brain to fAUC in CD1 mouse plasma at 3 mg/kg, sc. Conditions: read-out: K(p,uu,brain).

Compound `O=C1CCc2ccccc2N1CCCN1CCN(c2ccccc2)CC1` returned a Cmax in data set [1] of 481 ng/mL. Further, the Tmax in data set [2] came out at 15 min. Besides, in data set [3], the AUC(0-t) was determined as 2380 ng·h/mL. Moreover, the Kp uu in data set [4] is 4.05.
